What was measured:
[1] = biological target: T1, QuantiLum Luciferase (Photinus pyralis, UniProt P08659); experiment: Scaffolds: light emission of luciferin derivatives with QuantiLum luciferase alone, + Co A, + DTT, + Co A and DTT; type: biochemical, firefly
T1 construct: purchased Promega Corporation E170
Description: The DTT, Coenzyme A, and QuantiLum stock solutions are the same as those described herein.
This solution was diluted 1:1 with water to produce an enzyme solution labeled "No addition." This solution was diluted 1:1 with 400 mM DTT, pH 8.0 to produce a solution labeled +DTT. This solution was diluted 1:1 with 4 mM Coenzyme A to produce a solution labeled + Co A. Finally, this solution was diluted 1:1 with a solution having both 4 mM Coenzyme A and 400 mM DTT to produce a solution labeled +Co A & DTT.
50 µl samples of these solutions were placed in the wells of luminometer microtiter plates, row A to row G, respeutivly. Row H of the plates was given 50 µl of water.
Reactions in these plates were initiated by addition of 50 µl of solution containing QuantiLum luciferase using a 12 channel micropipette. The solutions added to the rows were: columns 1, 5, and 9 - no addition solution; columns 2, 6, and 10 - + Co A solution; columns 3, 7, and 11 + DTT solution, and; columns 4, 8, and 12 - + Co A and DTT solution. After addition of the enzyme solution to the first row on every plate, a timer was started. After addition of the enzyme solution to the last row on each plate, the plate was sealed and read on a Veritas luminometer.

[2] = tested on: thermostable luciferase (Luc 146-1H2); experiment: Residual thermostable luciferase activity after reaction with luciferin derivatives (Steady Glo); type: biochemical; conditions: Substrate 100
Description: (§1) This stock was used to produce enzyme stock solution having of 200 µg/ml enzyme solution in 1 mg/ml BSA, 200 mM HEPES buffer, pH 8.0, 20 mM MgCl2.
(§2) Solutions were made using a 1 M DTT solution, pH adjusted to 8.0, a 20 mM Coenzyme A solution in water (both described in examples above), a 100 mM ATP solution and water to create the following solutions: Sol'A, 100 µM ATP; Sol'B, 100 µM ATP, 4 mM Coenzyme A; Sol'n C, 100 µM ATP, 400 mM DTT, and; Sol'n D, 100 µM ATP, 4 mM Coenzyme A and 400 mM DTT.
(§3) After assembly, the reactions were initiated by addition of 25 µl of the thermostable luciferase stock solution above and mixing the tube contents. A 50 µl sample was immediately removed and placed in a luminometer tube and the light read and the tube then replaced in a tube rack at room temperature. While the light reading was being taken, a 5 µl sample of the remaining reaction (which was kept at room temperature) was diluted into 495 µl of 50 mM BisTris, pH 6.5, 1 mg/ml BSA, 1 mM EDTA prechilled to 4°C and the tube mixed and placed on ice. The light produced by the samples in the luminometer tubes were re-read at 20, 40, 60, 90 and 120 minutes post enzyme addition. Additional 5 µl samples were taken and diluted as above at 60 and 120 minutes post enzyme addition. Once all these readings and samples were taken, 50 µl of the diluted samples was mixed with 50 µl of Steady Glo in luminometer tubes, the tubes incubated 10 minutes on ice then the light produced was read on a Turner TD 20/20 luminometer.

[3] = tested on: thermostable luciferase (Luc 146-1H2); experiment: Thermostable luciferase reaction with luciferin derivatives: light readings; type: biochemical; conditions: 100 µM each; result in words
Description: as §1, §2
The following reactions were prepared (Table 47) Table 47
as §3

[4] = Derivative Conc. 1.07, Co A + DTT
[5] = Derivative Conc. 3.13, Co A + DTT
[6] = Derivative Conc. 6.25, Co A + DTT
[7] = Derivative Conc. 12.5, Co A + DTT
[8] = Derivative Conc. 25, Co A + DTT
[9] = Derivative Conc. 50, Co A + DTT
[10] = Derivative Conc. 100, Co A + DTT

T1 sequence (P08659 whole entry): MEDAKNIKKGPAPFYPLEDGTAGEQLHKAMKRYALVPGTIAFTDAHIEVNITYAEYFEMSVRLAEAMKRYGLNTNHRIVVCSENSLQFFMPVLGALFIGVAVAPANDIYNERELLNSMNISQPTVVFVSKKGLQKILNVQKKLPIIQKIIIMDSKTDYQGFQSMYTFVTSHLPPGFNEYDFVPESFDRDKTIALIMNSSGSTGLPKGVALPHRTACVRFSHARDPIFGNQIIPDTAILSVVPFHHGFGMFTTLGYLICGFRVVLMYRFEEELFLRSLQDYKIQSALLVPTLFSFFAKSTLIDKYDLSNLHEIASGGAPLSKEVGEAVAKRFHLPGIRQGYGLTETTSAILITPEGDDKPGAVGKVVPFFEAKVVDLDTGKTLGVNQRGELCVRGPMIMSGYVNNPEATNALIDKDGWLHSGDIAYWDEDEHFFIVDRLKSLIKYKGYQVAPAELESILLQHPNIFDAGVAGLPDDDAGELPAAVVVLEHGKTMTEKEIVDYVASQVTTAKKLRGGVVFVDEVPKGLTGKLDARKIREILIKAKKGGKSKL

Row | Compound | light emission values ([1]; Derivative Conc. 1.07, Alone) | light emission values ([1]; Derivative Conc. 1.07, Co A) | light emission values [1, 4] | light emission values ([1]; Derivative Conc. 1.07, DTT) | light emission values ([1]; Derivative Conc. 3.13, Alone) | light emission values ([1]; Derivative Conc. 3.13, Co A) | light emission values [1, 5] | light emission values ([1]; Derivative Conc. 3.13, DTT) | light emission values ([1]; Derivative Conc. 6.25, Alone) | light emission values ([1]; Derivative Conc. 6.25, Co A) | light emission values ([1]; Derivative Conc. 6.25, DTT) | light emission values ([1]; Derivative Conc. 12.5, Alone) | light emission values ([1]; Derivative Conc. 12.5, Co A) | light emission values [1, 7] | light emission values ([1]; Derivative Conc. 12.5, DTT) | light emission values ([1]; Derivative Conc. 25, Alone) | light emission values ([1]; Derivative Conc. 25, Co A) | light emission values [1, 8] | light emission values ([1]; Derivative Conc. 25, DTT) | light emission values ([1]; Derivative Conc. 50, Alone) | further results
1 | O=C(O)[C@H]1CSC(c2nc3ccc(OCCO)cc3s2)=N1 [2hydroxyethoxyluciferin ether] | 8807 | 13847 | 22105 | 24491 | 10769 | 14986 | 32555 | 36967 | 14686 | 18532 | 48458 | 19586 | 21636 | 54630 | 61882 | 27356 | 28679 | 67303 | 76612 | 38444 | light emission values [1, 6]: 42815; light emission values ([1]; Derivative Conc. 50, Co A): 39320; light emission values [1, 9]: 87170; light emission values ([1]; Derivative Conc. 50, DTT): 98407; light emission values ([1]; Derivative Conc. 100, Alone): 53804; light emission values ([1]; Derivative Conc. 100, Co A): 52640; light emission values [1, 10]: 94724; light emission values ([1]; Derivative Conc. 100, DTT): 128249
2 | COC(=O)[C@H]1CSC(c2ccc3cc(Oc4ccc(C(F)(F)F)cc4[N+](=O)[O-])ccc3n2)=N1 [GST #4] | 1146 | 1533 | 1714 | 1102 | 1537 | 1635 | 2034 | 1458 | 1571 | 1562 | 1633 | 1692 | 1275 | 1891 | 1474 | 1413 | 1026 | 1640 | 1492 | 1598 | light emission values [1, 6]: 1730; light emission values ([1]; Derivative Conc. 50, Co A): 1366; light emission values [1, 9]: 1729; light emission values ([1]; Derivative Conc. 50, DTT): 1354; light emission values ([1]; Derivative Conc. 100, Alone): 2119; light emission values ([1]; Derivative Conc. 100, Co A): 1853; light emission values [1, 10]: 1990; light emission values ([1]; Derivative Conc. 100, DTT): 1618
3 | O=C(O)[C@H]1CSC(c2nc3ccc(OCCCl)cc3s2)=N1 [L' in-CEE] |  |  |  |  |  |  |  |  |  |  |  |  |  |  |  |  |  |  |  |  | light values obtained upon addition of the diluted reaction samples into Steady Glo reagent ([2]; + Co A & DTT, Time Sample Taken 0 min): 1745; light values obtained upon addition of the diluted reaction samples into Steady Glo reagent ([2]; + Co A & DTT, Time Sample Taken 60 min): 1319; light values obtained upon addition of the diluted reaction samples into Steady Glo reagent ([2]; + Co A & DTT, Time Sample Taken 120 min): 1343; light values obtained upon addition of the diluted reaction samples into Steady Glo reagent ([2]; + Co A, Time Sample Taken 0 min): 1127; light values obtained upon addition of the diluted reaction samples into Steady Glo reagent ([2]; + Co A, Time Sample Taken 60 min): 1055; light values obtained upon addition of the diluted reaction samples into Steady Glo reagent ([2]; + Co A, Time Sample Taken 120 min): 770.5; light values obtained upon addition of the diluted reaction samples into Steady Glo reagent ([2]; + DTT, Time Sample Taken 0 min): 1168; light values obtained upon addition of the diluted reaction samples into Steady Glo reagent ([2]; + DTT, Time Sample Taken 60 min): 501.5; light values obtained upon addition of the diluted reaction samples into Steady Glo reagent ([2]; + DTT, Time Sample Taken 120 min): 1478; light values obtained upon addition of the diluted reaction samples into Steady Glo reagent ([2]; Alone, Time Sample Taken 0 min): 1262; light values obtained upon addition of the diluted reaction samples into Steady Glo reagent ([2]; Alone, Time Sample Taken 60 min): 1203; light values obtained upon addition of the diluted reaction samples into Steady Glo reagent ([2]; Alone, Time Sample Taken 120 min): 1273
4 | CCN(CC)c1ccc2nc(C3=NC(C(=O)O)CS3)sc2c1 (stereo not drawn) [diethylaminoluciferin] | 656110 | 688887 | 20592 | 5192 | 2259570 | 1941060 | 93423 | 47727 | 4009797 | 3457051 | 165732 | 5418990 | 4485779 | 645536 | 682672 | 6763022 | 5623886 | 1067954 | 1304383 | 8176569 | light emission values ([1]; Derivative Conc. 50, Co A): 7206157; light emission values [1, 9]: 1538668; light emission values ([1]; Derivative Conc. 50, DTT): 1826771; light emission values ([1]; Derivative Conc. 100, Alone): 9082149; light emission values [1, 10]: 1960750; light emission values ([1]; Derivative Conc. 100, DTT): 2180983
5 | CN(C)c1ccc2nc(C3=NC(C(=O)O)CS3)sc2c1 (stereo not drawn) [dimethyl amino luciferin] |  |  |  |  |  |  |  |  |  |  |  |  |  |  |  |  |  |  |  |  | brightness of luciferase reaction relative to amino luciferin [3]: about half as bright
6 | CN(Cc1ccccc1)c1ccc2nc(C3=NC(C(=O)O)CS3)sc2c1 (stereo not drawn) [methylbenzylaminoluciferin] | 25907602 | 12863007 | 2037020 | 929977 | 34516960 | 23501282 | 9404429 | 8088743 | 43052788 | 35730272 | 21756222 | 50528576 | 50418220 | 30367190 | 36663612 | 61572912 | 63598896 | 42613860 | 50632712 | 73867336 | light emission values [1, 6]: 19738584; light emission values ([1]; Derivative Conc. 50, Co A): 78390592; light emission values [1, 9]: 47965140; light emission values ([1]; Derivative Conc. 50, DTT): 54238960; light emission values ([1]; Derivative Conc. 100, Alone): 85579872; light emission values ([1]; Derivative Conc. 100, Co A): 89117784; light emission values [1, 10]: 48409604; light emission values ([1]; Derivative Conc. 100, DTT): 50806656
